Tested on: TMD8 cells
Test: Resazurin cell viability (proliferation) assay in TMD8 DLBCL cells
Format: cell-based
Conditions: Homo sapiens, TMD8 cells (BTK dependent), 72 h, 50% growth inhibition vs vehicle, read-out: TMD8 Prol GI50
How it was run: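 TMD8 cells were seeded at 1×10^4 per well and treated 3 h later with compound, in an 8-point 1:4 dilution series starting at 1 μM, or DMSO, for 72 h at 37° C. Resazurin was added at 13 μg/ml final for the last 2 h, and fluorescence was read at ex 530/em 600 nm. GI50 versus vehicle was derived by curve fitting from triplicates.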

Row | Compound | GI50
1 | COc1ccc(C(=O)N2CCC3(CCN(Cc4ccc(-c5cc6c(-c7cc(F)cc(NC(=O)c8ccc(C(C)(C)O)cc8F)c7C)ncnc6[nH]5)cc4)CC3)CC2)cc1N1CCC(=O)NC1=O [Compound 9, N-(3-(6-(4-((9-(3-(2,4-Dioxotetrahydropyrimidin-1(2H)-yl)-4-methoxybenzoyl)-3,9-diazaspiro[5.5]undecan-3-yl)methyl)phenyl)-7H-pyrrolo[2.3-d]pyrimidin-4-yl)-5-fluoro-2-methylphenyl)-2-fluoro-4-(2-hydroxypropan-2-yl)benzamide] | 0.52 nM
2 | Cc1c(NC(=O)c2ccc(C(C)(C)O)cc2F)cc(F)cc1-c1ncnc2[nH]c(-c3ccc(CCN4CCC5(CC4)CCN(C(=O)c4cccc(N6CCC(=O)NC6=O)c4)CC5)cc3)cc12 [Compound 12, N-(3-(6-(4-(2-(9-(3-(2,4-Dioxotetrahydropyrimidin-1(2H)-yl)benzoyl)-3,9-diazaspiro[5,5]undecan-3-yl)ethyl)phenyl)-7H-pyrrolo[2,3-d]pyrimidin-4-yl)-5-fluoro-2-methylphenyl)-2-fluoro-4-(2-hydroxypropan-2-yl)benzamide] | 0.93 nM
3 | CCOc1ccc(C(=O)N2CCC3(CCN(Cc4ccc(-c5cc6c(-c7cc(F)cc(NC(=O)c8ccc(C(C)(C)O)cc8F)c7C)ncnc6[nH]5)cc4)CC3)CC2)cc1N1CCC(=O)NC1=O [Compound 4, N-(3-(6-(4-((9-(3-(2,4-Dioxotetrahydropyrimidin-1(2H)-yl)-4-ethoxybenzoyl)-3,9-diazaspiro[5.5]undecan-3-yl)methyl)phenyl)-7H-pyrrolo[2,3-d]pyrimidin-4-yl)-5-fluoro-2-methylphenyl)-2-fluoro-4-(2-hydroxypropan-2-yl)benzamide] | 1.84 nM
4 | Cc1ccc(C(=O)N(C)CCCCCNCc2ccc(-c3cc4c(-c5cc(F)cc(NC(=O)c6ccc(C(C)(C)O)cc6F)c5C)ncnc4[nH]3)cc2)cc1N1CCC(=O)NC1=O [Compound 30, 3-(2,4-Dioxotetrahydropyrimidin-1(2H)-yl)-N-(5-((4-(4-(5-fluoro-3-(2-fluoro-4-(2-hydroxypropan-2-yl)benzamido)-2-methylphenyl)-7H-pyrrolo[2,3-d]pyrimidin-6-yl)benzyl)amino)pentyl)-N,4-dimethylbenzamide] | 5.2 nM
5 | Cc1ccc(C(=O)N2CCC3(CCN(Cc4ccc(-c5cc6c(-c7cc(F)cc(NC(=O)c8ccc(C(C)(C)O)cc8F)c7C)ncnc6[nH]5)cc4)CC3)CC2)cc1N1CCC(=O)NC1=O [Compound 27, N-(3-(6-(4-((9-(3-(2,4-Dioxotetrahydropyrimidin-1(2H)-yl)-4-methylbenzoyl)-3,9-diazaspiro[5.5]undecan-3-yl)methyl)phenyl)-7H-pyrrolo[2,3-d]pyrimidin-4-yl)-5-fluoro-2-methylphenyl)-2-fluoro-4-(2-hydroxypropan-2-yl)benzamide] | 0.4 nM
6 | Cc1ccc(C(=O)N2CCC3(CCN(CCc4ccc(-c5cc6c(-c7cc(F)cc(NC(=O)c8ccc(C(C)(C)O)cc8F)c7C)ncnc6[nH]5)cc4)CC3)CC2)cc1N1CCC(=O)NC1=O [Compound 5, N-(3-(6-(4-(2-(9-(3-(2,4-Dioxotetrahydropyrimidin-1(2H)-yl)-4-methylbenzoyl)-3,9-diazaspiro[5.5]undecan-3-yl)ethyl)phenyl)-7H-pyrrolo[2,3-d]pyrimidin-4-yl)-5-fluoro-2-methylphenyl)-2-fluoro-4-(2-hydroxypropan-2-yl)benzamide] | 0.47 nM
7 | Cc1cc(F)c(C(=O)NCCCCCNCc2ccc(-c3cc4c(-c5cc(F)cc(NC(=O)c6ccc(C(C)(C)O)cc6F)c5C)ncnc4[nH]3)cc2)cc1N1CCC(=O)NC1=O [Compound 29, 5-(2,4-Dioxotetrahydropyrimidin-1(2H)-yl)-2-fluoro-N—(S-((4-(4-(5-fluoro-3-(2-fluoro-4-(2-hydroxypropan-2-yl)benzamido)-2-methylphenyl)-7H-pyrrolo[2,3-d]pyrimidin-6-yl)benzyl)amino)pentyl)-4-methylbenzamide] | 2.25 nM
8 | COc1ccc(C(=O)N2CCC3(CC2)CCN(C(C)(C)Cc2ccc(-c4cc5c(-c6cc(F)cc(NC(=O)c7ccc(C(C)(C)O)cc7F)c6C)ncnc5[nH]4)cc2)CC3)cc1N1CCC(=O)NC1=O [Compound 20, N-(3-(6-(4-(2-(9-(3-(2,4-Dioxotetrahydropyrimidin-1(2H)-yl)-4-methoxybenzoyl)-3,9-diazaspiro[5.5]undecan-3-yl)-2-methylpropyl)phenyl)-7H-pyrrolo[2,3-d]pyrimidin-4-yl)-5-fluoro-2-methylphenyl)-2-fluoro-4-(2-hydroxypropan-2-yl)benzamide] | 0.53 nM
9 | COc1ccc(C(=O)N2CCC(OC3CCN(CCc4ccc(-c5cc6c(-c7cc(F)cc(NC(=O)c8ccc(C(C)(C)O)cc8F)c7C)ncnc6[nH]5)cc4)CC3)CC2)cc1N1CCC(=O)NC1=O [Compound 34, N-(3-(6-(4-(2-(4-((1-(3-(2,4-Dioxotetrahydropyrimidin-1(2H)-yl)-4-methoxybenzoyl)piperidin-4-yl)oxyl)piperidin-1-yl)ethyl)phenyl)-7H-pyrrolo[2,3-d]pyrimidin-4-yl)-5-fluoro-2-methylphenyl)-2-fluoro-4-(2-hydroxypropan-2-yl)benzamide] | 1.7 nM
10 | COc1ccc(C(=O)NCCN2CCC3(CC2)CCN(Cc2ccc(-c4cc5c(-c6cc(F)cc(NC(=O)c7ccc(C(C)(C)O)cc7F)c6C)ncnc5[nH]4)cc2)CC3)cc1N1CCC(=O)NC1=O [Compound 44, N-(3-(6-(4-((9-(2-(3-(2,4-dioxotetrahydropyrimidin-1(2H)-yl)-4-methoxybenzamido)ethyl)-3,9-diazaspiro[5.5]undecan-3-yl)methyl)phenyl)-7H-pyrrolo[2,3-d]pyrimidin-4-yl)-5-fluoro-2-methylphenyl)-2-fluoro-4-(2-hydroxypropan-2-yl)benzamide] | 3.74 nM
11 | Cc1c(NC(=O)c2ccc(C(C)(C)O)cc2F)cc(F)cc1-c1ncnc2[nH]c(-c3ccc(COC4CCN(CCC5CCN(C(=O)c6ccc(F)c(N7CCC(=O)NC7=O)c6)CC5)CC4)cc3)cc12 [Compound 6, N-(3-(6-(4-(((1-(2(1-(3-(2,4-dioxotetrahydropyrimidin-1(2H)-yl)-4-fluorobenzoyl)piperidin-4-yl)ethyl)piperidin-4-yl)oxyl)methyl)phenyl)-7H-pyrrolo[2,3-d]pyrimidin-4-yl)-5-fluoro-2-methylphenyl)-2-fluoro-4-(2-hydroxypropan-2-yl)benzamide] | 0.53 nM
12 | COc1ccc(C(=O)N2CCC(OC3CCN(Cc4ccc(-c5cc6c(-c7cc(F)cc(NC(=O)c8ccc(C(C)(C)O)cc8F)c7C)ncnc6[nH]5)cc4)CC3)CC2)cc1N1CCC(=O)NC1=O [Compound 8, N-(3-(6-(4-((4-((1-(3-(2,4-dioxotetrahydropyrimidin-1(2H)-yl)-4-methoxybenzoyl)piperidin-4-yl)oxyl)piperidin-1-yl)methyl)phenyl)-7H-pyrrolo[2,3-d]pyrimidin-4-yl)-5-fluoro-2-methylphenyl)-2-fluoro-4-(2-hydroxypropan-2-yl)benzamide] | 0.39 nM
13 | COc1ccc(C(=O)N2CCN(C(=O)N3CCN(Cc4ccc(-c5cc6c(-c7cc(F)cc(NC(=O)c8ccc(C(C)(C)O)cc8F)c7C)ncnc6[nH]5)cc4)CC3)CC2)cc1N1CCC(=O)NC1=O [Compound 22, N-(3-(6-(4-((4-(4-(3-(2,4-Dioxotetrahydropyrimidin-1(2H)-yl)-4-methoxybenzoyl)piperazine-1-carbonyl)piperazin-1-yl)methyl)phenyl)-7H-pyrrolo[2,3-d]pyrimidin-4-yl)-5-fluoro-2-methylphenyl)-2-fluoro-4-(2-hydroxypropan-2-yl)benzamide] | 4.82 nM
14 | Cc1c(NC(=O)c2ccc(C(C)(C)O)cc2F)cc(F)cc1-c1ncnc2[nH]c(-c3ccc(CCN4CCC5(CC4)CCN(C(=O)c4ccc(F)c(N6CCC(=O)NC6=O)c4)CC5)cc3)cc12 [Compound 47, N-(3-(6-(4-(2-(9-(3-(2,4-dioxotetrahydropyrimidin-1(2H)-yl)-4-fluorobenzoyl)-3,9-diazaspiro[5.5]undecan-3-yl)ethyl)phenyl)-7H-pyrrolo[2,3-d]pyrimidin-4-yl)-5-fluoro-2-methylphenyl)-2-fluoro-4-(2-hydroxypropan-2-yl)benzamide] | 0.53 nM
15 | COc1ccc(C(=O)N2CCC(CN3CCC(Oc4ccc(-c5cc6c(-c7cc(F)cc(NC(=O)c8ccc(C(C)(C)O)cc8F)c7C)ncnc6[nH]5)cc4)CC3)CC2)cc1N1CCC(=O)NC1=O [Compound 19, N-(3-(6-(4-((1-((1-(3-(2,4-Dioxotetrahydropyrimidin-1(2H)-yl)-4-methoxybenzoyl)piperidin-4-yl)methyl)piperidin-4-yl)oxyl)phenyl)-7H-pyrrolo[2,3-d]pyrimidin-4-yl)-5-fluoro-2-methylphenyl)-2-fluoro-4-(2-hydroxypropan-2-yl)benzamide] | 0.45 nM
16 | COc1ccc(C(=O)NCCN2CCOC3(CCN(Cc4ccc(-c5cc6c(-c7cc(F)cc(NC(=O)c8ccc(C(C)(C)O)cc8F)c7C)ncnc6[nH]5)cc4)CC3)C2)cc1N1CCC(=O)NC1=O [Compound 39, N-(3-(6-(4-((4-(2-(3-(2,4-dioxotetrahydropyrimidin-1(2H)-yl)-4-methoxybenzamido)ethyl)-1-oxa-4,9-diazaspiro[5.5]undecan-9-yl)methyl)phenyl)-7H-pyrrolo[2,3-d]pyrimidin-4-yl)-5-fluoro-2-methylphenyl)-2-fluoro-4-(2-hydroxypropan-2-yl)benzamide] | 4.79 nM
17 | COc1ccc(C(=O)N2CCN(CCCCNCc3ccc(-c4cc5c(-c6cc(F)cc(NC(=O)c7ccc(C(C)(C)O)cc7F)c6C)ncnc5[nH]4)cc3)CC2)cc1N1CCC(=O)NC1=O [Compound 40, N-(3-(6-(4-(((4-(4-(3-(2,4-dioxotetrahydropyrimidin-1(2H)-yl)-4-methoxybenzoyl)piperazin-1-yl)butyl)amino)methyl)phenyl)-7H-pyrrolo[2,3-d]pyrimidin-4-yl)-5-fluoro-2-methylphenyl)-2-fluoro-4-(2-hydroxypropan-2-yl)benzamide] | 3.43 nM

— patent US12441733B2, “Substituted 2,4-dioxotetrahydropyrimidines as intermediates in the synthesis of bruton's tyrosine kinase inhibitors” (Novartis AG, priority 2018, dated 2025)
